Test results reported in article PMC10824102, “Identification of small molecule inhibitors of G3BP-driven stress granule formation” (The Journal of Cell Biology, 2024).

Legend:
NTF2L domain of G3BP1 = target: T1, NTF2L domain of G3BP1 (Homo sapiens, UniProt Q13283); assay: SPR binding of compounds to sensor-immobilized G3BP1; conditions: for Kd: equilibrium analysis, 1:1 binding model, 25°C, pH 7.4; for Kd of inactive enantiomer relative to active compound: SPR, same domain
T1 construct: made in house; host or cells: E. coli BL21 (DE3)
T1 sequence (Q13283 11-133 limits assumed): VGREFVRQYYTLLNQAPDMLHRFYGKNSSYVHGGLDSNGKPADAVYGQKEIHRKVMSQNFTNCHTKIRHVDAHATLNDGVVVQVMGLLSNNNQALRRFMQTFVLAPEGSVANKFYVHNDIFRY
Procedure: Binding affinity for G3BP1 was measured by SPR assay using a Biacore 8K instrument (Cytiva) at 25°C at pH 7.4 (20 mM Tris, 300 mM NaCl, 0.05% Tween-20, 2% DMSO) using neutravidin sensor chips. The binding of solution phase molecules was measured to sensor-bound biotinylated, AVI-tagged versions of the NTF2L domain of G3BP1. G3BP1 was captured on the sensor surface at the beginning of each experiment at a level of ∼1,000 RU. A neutravidin-only surface was used as a reference. Binding affinity was measured by equilibrium analysis of double-reference subtracted data performed at seven different analyte concentrations. A 1:1 binding model was used to estimate affinity; the maximum binding response was typically about 90% of the theoretical maximum for a 1:1 interaction given the size of the protein and analytes. Binding at the end of a 90-s association phase was measured; data were only used where equilibrium binding was reached. No regeneration was performed between binding cycles as all tested molecules dissociated completely from the sensor at the end of each cycle. Estimation of binding affinity by kinetic analysis was not performed as kinetic constants were beyond the range that could be reliably measured by the instrumentation.

[1] = system: stress granule formation in U2OS cells stably expressing G3BP1-GFP; assay: Preincubation, arsenite-induced stress granule formation, live cell imaging in U2OS; format: cell-based; conditions: for reduction of total stress granule area / reduction of stress granule formation compared with inactive enantiomer: 20 min pretreatment; for reduction of total stress granule area / stress granule formation: 500 μM NaAsO2; for reduction of stress granule formation compared with inactive enantiomer: 250 μM NaAsO2; for stress granule formation: any tested dose (5, 20, 50 μM)
Procedure: For preincubation of compounds, U2OS or HeLa cells stably expressing G3BP1-GFP or CRISPR-modified cells expressing TDP-43-GFP/G3BP1-GFP were seeded into eight-well Lab-Tek chambered cover glass (Nunc). […] This solution was vortexed for 5 s, added to the cells at 250 μl per well, and left to incubate on the microscope for 20 min. Conditions were maintained at 37°C and 5% CO2 using a Bold Line Cage Incubator (Okolab) and an objective heater (Bioptechs). During this incubation time, 5 xy fields were stored per condition, with each field having ∼20–30 cells within it. After the 20-min incubation, 250 μl of 500 μM or 1 mM (2×) sodium arsenite (Sigma-Aldrich) diluted in the FluoroBrite media with an appropriate amount of G3I compound or DMSO was added to the sample. Imaging began immediately after, with images at each xy field being taken every 1 min. For heat shock experiments, U2OS G3BP1-GFP-expressing cells were seeded into a 35-mm glass bottom dish (MatTek). Prior to the experiment, 1.5 ml FluoroBrite DMEM media (Gibco) supplemented with 10% FBS and 4 mM L-glutamine was combined with 0.1% DMSO or 50 μM G3I compound. The sample was incubated on the environmentally controlled microscope for 20 min. During this incubation time, 10 xy fields were stored per condition. After the 20-min incubation, acquisition began with each xy position being imaged every 30 s. 2 min into the acquisition, the objective heater was ramped to 43°C and maintained this temperature until ramped back down to 37°C at 32 min into the acquisition. All imaging was acquired on a Yokogawa CSU W1 spinning disk attached to a Nikon Ti2 eclipse with a Photometrics Prime 95B camera using Nikon Elements software (v5.20.00 to v5.21.02). Imaging was performed through a Nikon Plan Apo 60× 1.40 NA oil objective with Immersol 518 F (refractive index 1.518; Zeiss), and Perfect Focus 2.0 (Nikon) was engaged for all captures.
Automated granule detection and measurement were performed using a combination of ilastik and CellProfiler software. Briefly, ND2 multipoint timelapse files were resaved as image sequences in Fiji with the Bio-Formats plugin so that individual frames of the movies could be treated as individual images for analysis. From there, pixel classification in ilastik was used to segment both stress granules and the total cellular area within the field using the G3BP1-GFP channel via machine learning. These segmentations, along with the original G3BP1-GFP image, were input into CellProfiler, where objects were defined using the masks from ilastik.

[2] = system: VCP A232E-induced stress granules in U2OS cells with tdTomato-tagged endogenous G3BP1; assay: Dissolution of stress granules induced by GFP-VCP A232E expression; format: cell-based; conditions: 50 μM for 30 min; automated puncta tracking for G3Ia, manual blinded cell tracking for G3Ib
Procedure: U2OS cells with knock-in of G3BP1-tdTomato ([Yang et al., 2020]) were seeded into 96-well plates (3904; Corning). Either GFP-VCP-A232E or GFP-FUS-R495X were transfected into cells using ViaFect transfection reagent (Promega) 24 h prior to the start of the experiment. For samples to be treated with compounds G3Ia or G3Ia′, Hoechst (1:5,000; Biotium) was added and incubated for 30 min prior to the start of the experiment, washed once with PBS, and the media was changed to 100 μl FluoroBrite DMEM media (Gibco) upon starting the experiment. Imaging of plates was performed on a Cytation C10 spinning disk confocal (BioTek) with a Hamamatsu Orca-Flash 4.0 camera using Gen5 software (version 3.11). Imaging was performed through an Olympus Plan Apo 40× 0.6 NA dry objective with an adjustable collar set to 0.5 μm thickness. Laser autofocus prior to imaging the tdTomato channel was utilized for each image. The temperature was maintained at 37°C on the instrument and the cells were supplied with 5% CO2. A 7 × 7 tilescan was taken at the center of each well, capturing the tdTomato and GFP channels (and Hoechst when present). After completing the tilescan, 100 μl FluoroBrite with 100 μM (2×) G3I compound (vortexed for 5 s) was added to each well and incubated for 20 min before starting another round of imaging in the same locations as the first round. Samples treated with G3Ib or G3Ib′ were analyzed manually, scoring each cell with spontaneous granules for the presence or absence of granules following treatment with the compound. For experiments in which G3I compounds were pretreated prior to transfection, 50 μM of indicated compound or vehicle control were added to U2OS cells 20 min prior to the addition of the transfection reagent. […]
Samples treated with G3Ia or G3Ia′ were analyzed using an automated pipeline. […]

Structure (SMILES)	Kd (NTF2L domain of G3BP1) [µM]	reduction of total stress granule area ([1]; 5 μM) [%]	reduction of total stress granule area ([1]; 20 μM) [%]	reduction of stress granule formation compared with inactive enantiomer ([1]; 50 μM) [%]	reduction of total stress granule area ([1]; 50 μM) [%]	dissolution of VCP A232E-induced stress granules [2] [%]	Kd of inactive enantiomer relative to active compound (NTF2L domain of G3BP1) [fold]	stress granule formation [1]
COCCC(NC(=O)C(C)NC(=O)C(NC(=O)C(NC(=O)C(F)CC(C)(C)C)C(C)(C)O)C(C)c1ccccc1)C(=O)N(C)Cc1ccccc1 (stereo not shown) [G3Ia]	0.54	~36	~59	~86	~80	83		
COCCC(NC(=O)C(C)NC(=O)C(NC(=O)C(NC(=O)C(F)CC(C)(C)C)C(C)(C)O)C(C)c1ccccc1)C(=O)N(C)Cc1ccccc1 (stereo not shown) [G3Ia′]	75.5						> 100	not significantly altered
CC(NC(=O)C(NC(=O)C(NC(=O)CCC(C)(C)C)C(C)(C)O)C(C)c1ccccc1)C(=O)N1CCCC1c1ccccc1 (stereo not shown) [G3Ib]	0.15	~50	~85	~94	~93	69		
CC(NC(=O)C(NC(=O)C(NC(=O)CCC(C)(C)C)C(C)(C)O)C(C)c1ccccc1)C(=O)N1CCCC1c1ccccc1 (stereo not shown) [G3Ib′]	44.5					6	> 100	not significantly altered
